The values that follow come from article PMC4921915 (Scientific Reports, 2016).

For the test, the target named is T1, α1β3 GABAA receptor, 3α1:2β3 stoichiometry (α1 + β3, 30:1) (Homo sapiens, UniProt P14867+P28472).
T1 construct: gene GABRA1; full-length free subunits, cRNA ratio α1:β3 30:1, Xenopus laevis oocytes; heteropentamer; 'Human' printed for α1 and γ2, β3 implied by same sentence
T1 sequence (P14867 28-456): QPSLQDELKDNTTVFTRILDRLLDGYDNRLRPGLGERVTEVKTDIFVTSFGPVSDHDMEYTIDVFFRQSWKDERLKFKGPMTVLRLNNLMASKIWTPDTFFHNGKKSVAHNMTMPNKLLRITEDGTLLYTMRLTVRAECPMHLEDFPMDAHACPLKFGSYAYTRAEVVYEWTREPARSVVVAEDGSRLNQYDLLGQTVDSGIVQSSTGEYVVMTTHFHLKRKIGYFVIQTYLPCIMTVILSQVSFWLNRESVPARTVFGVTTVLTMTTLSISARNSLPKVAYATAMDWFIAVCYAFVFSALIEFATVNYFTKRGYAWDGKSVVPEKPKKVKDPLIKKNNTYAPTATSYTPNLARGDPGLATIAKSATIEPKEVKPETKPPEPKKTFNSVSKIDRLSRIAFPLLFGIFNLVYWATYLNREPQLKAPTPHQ
T1 sequence (P28472 26-473): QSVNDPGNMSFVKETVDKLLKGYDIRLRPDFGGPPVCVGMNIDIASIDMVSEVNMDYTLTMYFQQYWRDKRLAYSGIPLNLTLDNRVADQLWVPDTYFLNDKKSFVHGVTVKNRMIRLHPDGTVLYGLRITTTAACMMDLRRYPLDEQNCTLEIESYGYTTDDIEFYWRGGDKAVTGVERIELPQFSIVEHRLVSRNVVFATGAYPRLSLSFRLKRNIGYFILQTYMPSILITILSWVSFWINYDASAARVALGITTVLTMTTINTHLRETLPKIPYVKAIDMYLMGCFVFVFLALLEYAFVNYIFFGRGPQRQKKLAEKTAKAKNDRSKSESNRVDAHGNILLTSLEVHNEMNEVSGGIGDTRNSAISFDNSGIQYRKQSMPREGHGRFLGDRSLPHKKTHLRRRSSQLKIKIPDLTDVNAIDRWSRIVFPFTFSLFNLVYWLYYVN
In words: two-electrode voltage clamp, Xenopus oocytes. In kind it is cell-based. The following applies: read-out: % inhibition at 1 μM. Background: In two-electrode clamp one electrode senses voltage and the other passes current.

Consider `CCOC(=O)c1ncn2c1CN(C)C(=O)c1cc(F)ccc1-2` [flumazenil, Ethyl 8-fluoro-5-methyl-6-oxo-5,6-dihydro-4H-benzo[f]imidazo[1,5-a][1,4]diazepine-3-carboxylate], for which the inhibition at 1 µM was 95%.

As a reminder, the inhibition is how much of the control response was suppressed.
